According to ChEMBL document CHEMBL1201862, “PubChem BioAssay data set” (2004):
Activity calls are given as the source filed them.

Key:
[1] = biological target: T1, Zinc finger protein mex-5 (Caenorhabditis elegans, UniProt Q9XUB2); experiment: MEX-5/TCR-2 RNA interaction inhibitors, dose response, biochemical, C. elegans, fluorescence polarization (AID 1960)
T1 sequence (Q9XUB2 whole entry): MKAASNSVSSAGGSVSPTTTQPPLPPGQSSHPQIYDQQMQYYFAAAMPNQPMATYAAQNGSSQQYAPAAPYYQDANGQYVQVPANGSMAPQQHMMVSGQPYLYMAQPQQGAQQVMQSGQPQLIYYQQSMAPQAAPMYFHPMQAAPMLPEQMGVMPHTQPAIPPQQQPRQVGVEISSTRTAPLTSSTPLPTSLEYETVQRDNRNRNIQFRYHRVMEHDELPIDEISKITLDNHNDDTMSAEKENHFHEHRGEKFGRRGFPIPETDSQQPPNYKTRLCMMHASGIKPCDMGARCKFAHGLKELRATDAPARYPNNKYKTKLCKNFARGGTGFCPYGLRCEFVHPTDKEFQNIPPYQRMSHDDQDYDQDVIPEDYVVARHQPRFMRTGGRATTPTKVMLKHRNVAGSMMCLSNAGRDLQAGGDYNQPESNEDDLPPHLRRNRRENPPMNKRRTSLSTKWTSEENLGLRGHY

Aminopeptidase N = biological target: T2, Aminopeptidase N (Plasmodium falciparum FcB1/Columbia, UniProt O96935); experiment: P. falciparum M1AAP inhibitors, biochemical, fluorogenic H-Leu-NHMec substrate, 1536-well (AID 1445); set-up: species or system Plasmodium falciparum 3D7, 3D7
T2 sequence (O96935 whole entry): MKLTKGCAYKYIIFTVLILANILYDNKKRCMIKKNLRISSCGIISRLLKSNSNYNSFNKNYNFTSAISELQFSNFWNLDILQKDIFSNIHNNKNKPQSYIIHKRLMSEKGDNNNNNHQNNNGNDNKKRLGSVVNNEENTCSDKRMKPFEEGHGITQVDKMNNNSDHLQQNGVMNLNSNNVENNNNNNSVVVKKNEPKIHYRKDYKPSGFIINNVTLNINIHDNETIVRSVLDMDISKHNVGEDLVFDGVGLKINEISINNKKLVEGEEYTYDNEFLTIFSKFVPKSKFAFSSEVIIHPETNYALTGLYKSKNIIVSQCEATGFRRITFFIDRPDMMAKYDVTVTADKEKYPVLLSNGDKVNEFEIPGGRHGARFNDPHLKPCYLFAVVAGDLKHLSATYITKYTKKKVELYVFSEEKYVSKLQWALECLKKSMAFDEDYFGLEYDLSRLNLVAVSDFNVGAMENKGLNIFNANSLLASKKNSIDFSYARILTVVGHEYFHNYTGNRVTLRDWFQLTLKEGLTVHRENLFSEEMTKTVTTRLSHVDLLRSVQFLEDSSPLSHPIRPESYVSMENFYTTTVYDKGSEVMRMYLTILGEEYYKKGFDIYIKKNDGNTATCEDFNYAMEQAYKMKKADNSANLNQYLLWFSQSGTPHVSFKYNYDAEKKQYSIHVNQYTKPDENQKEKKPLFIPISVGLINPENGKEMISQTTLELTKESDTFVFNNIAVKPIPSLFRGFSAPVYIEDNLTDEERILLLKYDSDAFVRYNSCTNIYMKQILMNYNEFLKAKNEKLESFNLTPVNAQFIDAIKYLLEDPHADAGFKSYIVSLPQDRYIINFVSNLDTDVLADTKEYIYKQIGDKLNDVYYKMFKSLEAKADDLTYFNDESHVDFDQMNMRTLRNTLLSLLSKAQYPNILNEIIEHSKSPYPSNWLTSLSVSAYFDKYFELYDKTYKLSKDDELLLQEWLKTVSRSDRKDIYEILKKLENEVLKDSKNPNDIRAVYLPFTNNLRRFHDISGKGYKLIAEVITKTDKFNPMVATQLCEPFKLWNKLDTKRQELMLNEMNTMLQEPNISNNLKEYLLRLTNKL

Genome polyprotein = Genome polyprotein (dengue virus type 2, UniProt P29990); experiment: Dengue-2 NS5 methyltransferase inhibitors, primary screen, biochemical, confirmation dose response (AID 588689); assay type: functional
Sequence of Genome polyprotein (P29990 2492-3391 limits assumed): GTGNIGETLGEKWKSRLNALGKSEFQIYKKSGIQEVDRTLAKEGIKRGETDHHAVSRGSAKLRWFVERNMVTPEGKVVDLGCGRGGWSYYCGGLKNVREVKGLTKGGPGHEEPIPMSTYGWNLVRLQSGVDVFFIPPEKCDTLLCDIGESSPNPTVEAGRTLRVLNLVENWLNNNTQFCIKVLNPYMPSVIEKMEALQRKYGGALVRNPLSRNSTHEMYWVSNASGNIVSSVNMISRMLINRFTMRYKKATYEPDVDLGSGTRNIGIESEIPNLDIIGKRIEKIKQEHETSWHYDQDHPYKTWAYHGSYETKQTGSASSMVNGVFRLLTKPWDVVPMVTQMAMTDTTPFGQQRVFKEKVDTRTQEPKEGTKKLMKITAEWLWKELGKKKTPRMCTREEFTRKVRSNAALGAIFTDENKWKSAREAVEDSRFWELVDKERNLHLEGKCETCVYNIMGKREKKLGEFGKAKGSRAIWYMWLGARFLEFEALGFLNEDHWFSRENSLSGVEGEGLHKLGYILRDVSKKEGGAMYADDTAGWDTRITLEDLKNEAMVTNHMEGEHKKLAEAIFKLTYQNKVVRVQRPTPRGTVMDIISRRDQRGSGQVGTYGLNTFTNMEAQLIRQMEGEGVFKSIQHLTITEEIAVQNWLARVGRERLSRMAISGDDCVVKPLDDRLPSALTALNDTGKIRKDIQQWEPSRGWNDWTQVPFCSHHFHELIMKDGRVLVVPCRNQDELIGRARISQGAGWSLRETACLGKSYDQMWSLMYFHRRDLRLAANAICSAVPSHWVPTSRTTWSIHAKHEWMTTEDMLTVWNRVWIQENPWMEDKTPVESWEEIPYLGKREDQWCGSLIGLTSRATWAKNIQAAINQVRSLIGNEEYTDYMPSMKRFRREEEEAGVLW

[2] = biological target: Ribosomal protein S6 kinase alpha-3 (Homo sapiens, UniProt P51812); assay type: functional;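 also: measured within a kinome-wide profiling panel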
[3] = biological target: Serine/threonine-protein kinase D3 (Homo sapiens, UniProt O94806); assay type: functional;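 also: determined within a kinase panel screen, with PRKCN as the panel member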
[4] = biological target: Testis-specific serine/threonine-protein kinase 2 (Homo sapiens, UniProt Q96PF2); assay type: functional;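 also: part of the Navigating the Kinome panel, target entry STK22B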
[5] = biological target: Fibroblast growth factor receptor 1 (Homo sapiens, UniProt P11362); assay type: functional
Sequence of Fibroblast growth factor receptor 1 (P11362 whole entry): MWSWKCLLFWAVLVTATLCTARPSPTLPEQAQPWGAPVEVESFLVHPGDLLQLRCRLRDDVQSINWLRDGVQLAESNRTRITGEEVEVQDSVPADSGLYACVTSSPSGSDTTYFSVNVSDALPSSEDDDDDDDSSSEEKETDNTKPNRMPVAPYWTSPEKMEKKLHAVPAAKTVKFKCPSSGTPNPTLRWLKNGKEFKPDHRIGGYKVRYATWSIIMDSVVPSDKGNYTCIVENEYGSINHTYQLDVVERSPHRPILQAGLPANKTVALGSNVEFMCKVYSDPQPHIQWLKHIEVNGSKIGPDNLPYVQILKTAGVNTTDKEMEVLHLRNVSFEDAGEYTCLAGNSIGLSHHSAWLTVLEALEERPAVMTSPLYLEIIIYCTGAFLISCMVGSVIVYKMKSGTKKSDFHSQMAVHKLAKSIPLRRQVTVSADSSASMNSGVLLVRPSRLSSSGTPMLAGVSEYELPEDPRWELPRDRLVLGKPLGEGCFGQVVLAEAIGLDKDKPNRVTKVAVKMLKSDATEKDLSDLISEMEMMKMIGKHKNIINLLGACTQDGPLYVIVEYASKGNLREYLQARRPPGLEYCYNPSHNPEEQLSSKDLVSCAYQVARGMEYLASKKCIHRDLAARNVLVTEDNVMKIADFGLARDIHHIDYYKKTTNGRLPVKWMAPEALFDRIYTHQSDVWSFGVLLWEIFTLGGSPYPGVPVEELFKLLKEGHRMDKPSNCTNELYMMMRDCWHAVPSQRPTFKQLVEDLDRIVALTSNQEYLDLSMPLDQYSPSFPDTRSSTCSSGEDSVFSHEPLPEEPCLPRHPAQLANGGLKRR

Insulin receptor = Insulin receptor (Homo sapiens, UniProt P06213); assay type: functional;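 also: insulin receptor kinase tested as one member of a kinome-wide kinase panel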
[6] = biological target: Protein kinase C gamma type (Homo sapiens, UniProt P05129); assay type: functional
[7] = biological target: Mitogen-activated protein kinase kinase kinase kinase 2 (Homo sapiens, UniProt Q12851); assay type: functional;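 also: measured as one member of a kinome-wide kinase panel, with MAP4K2 as the panel entry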
[8] = biological target: Serine/threonine-protein kinase Chk1 (Homo sapiens, UniProt O14757); assay type: functional;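 also: measured as one member of a kinome-wide kinase profiling panel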
Sequence of Serine/threonine-protein kinase Chk1 (O14757 whole entry): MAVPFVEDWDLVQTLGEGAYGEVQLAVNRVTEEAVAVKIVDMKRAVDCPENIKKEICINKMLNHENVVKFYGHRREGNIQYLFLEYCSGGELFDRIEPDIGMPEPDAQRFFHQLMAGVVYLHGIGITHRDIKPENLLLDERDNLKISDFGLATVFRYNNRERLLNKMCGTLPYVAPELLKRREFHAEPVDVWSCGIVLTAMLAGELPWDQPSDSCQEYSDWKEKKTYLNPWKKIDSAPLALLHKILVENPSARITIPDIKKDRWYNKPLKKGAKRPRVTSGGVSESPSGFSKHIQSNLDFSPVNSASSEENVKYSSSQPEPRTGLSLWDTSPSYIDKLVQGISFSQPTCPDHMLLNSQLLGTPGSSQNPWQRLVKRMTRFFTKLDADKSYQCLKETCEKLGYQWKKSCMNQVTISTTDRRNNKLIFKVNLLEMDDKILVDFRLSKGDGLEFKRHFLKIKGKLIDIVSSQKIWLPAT

[9] = biological target: MAP kinase-interacting serine/threonine-protein kinase 2 (Homo sapiens, UniProt Q9HBH9); assay type: functional
[10] = biological target: Mitogen-activated protein kinase kinase kinase kinase 5 (Homo sapiens, UniProt Q9Y4K4); assay type: functional;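 also: measured as one member of a kinome-spanning kinase panel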
[11] = biological target: Tyrosine-protein kinase Fer (Homo sapiens, UniProt P16591); assay type: functional;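 also: FER tested as one member of a kinome panel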
Sequence of Tyrosine-protein kinase Fer (P16591 whole entry): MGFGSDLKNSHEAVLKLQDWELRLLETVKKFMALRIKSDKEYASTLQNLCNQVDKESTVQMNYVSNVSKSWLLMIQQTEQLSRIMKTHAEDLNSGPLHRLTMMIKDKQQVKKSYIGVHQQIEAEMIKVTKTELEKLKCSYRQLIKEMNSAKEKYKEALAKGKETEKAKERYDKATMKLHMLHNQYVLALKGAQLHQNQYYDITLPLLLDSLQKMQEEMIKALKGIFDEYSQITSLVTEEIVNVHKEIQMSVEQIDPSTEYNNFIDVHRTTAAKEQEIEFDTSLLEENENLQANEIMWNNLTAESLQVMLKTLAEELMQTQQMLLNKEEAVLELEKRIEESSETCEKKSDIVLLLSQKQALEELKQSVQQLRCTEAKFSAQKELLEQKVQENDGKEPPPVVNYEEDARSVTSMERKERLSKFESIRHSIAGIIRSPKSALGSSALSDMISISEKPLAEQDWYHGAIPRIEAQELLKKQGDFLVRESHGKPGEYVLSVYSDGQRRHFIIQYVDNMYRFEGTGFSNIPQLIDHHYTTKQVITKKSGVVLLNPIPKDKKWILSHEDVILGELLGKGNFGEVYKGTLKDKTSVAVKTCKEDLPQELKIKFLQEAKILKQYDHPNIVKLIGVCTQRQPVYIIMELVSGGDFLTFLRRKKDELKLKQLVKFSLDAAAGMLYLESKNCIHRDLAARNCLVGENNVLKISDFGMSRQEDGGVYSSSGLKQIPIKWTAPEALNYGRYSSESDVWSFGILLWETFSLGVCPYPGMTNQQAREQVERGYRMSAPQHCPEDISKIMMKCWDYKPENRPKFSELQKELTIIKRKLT

[12] = biological target: Cyclin-dependent kinase 1 (Homo sapiens, UniProt P06493); assay type: functional;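 also: Kinome-wide panel profiling, with the target listed as panel member CDC2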
Sequence of Cyclin-dependent kinase 1 (P06493 whole entry): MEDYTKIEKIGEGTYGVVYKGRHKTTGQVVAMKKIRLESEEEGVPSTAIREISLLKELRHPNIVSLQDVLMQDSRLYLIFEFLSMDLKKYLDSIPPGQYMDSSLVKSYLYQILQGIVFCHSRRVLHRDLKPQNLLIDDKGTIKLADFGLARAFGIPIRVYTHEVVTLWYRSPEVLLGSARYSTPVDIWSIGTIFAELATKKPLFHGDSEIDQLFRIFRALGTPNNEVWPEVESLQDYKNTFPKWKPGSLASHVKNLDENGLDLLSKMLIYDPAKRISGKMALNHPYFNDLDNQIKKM

[13] = biological target: Serine/threonine-protein kinase pim-2 (Homo sapiens, UniProt Q9P1W9); assay type: functional;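 also: value comes from a broad kinase panel profiling study in which PIM2 was one of the panel members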
[14] = biological target: Serine/threonine-protein kinase DCLK1 (Homo sapiens, UniProt O15075); assay type: functional;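 also: affinity for DCLK1 (listed as DCAMKL1) measured as one member of a kinome-wide kinase profiling panel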
Sequence of Serine/threonine-protein kinase DCLK1 (O15075 whole entry): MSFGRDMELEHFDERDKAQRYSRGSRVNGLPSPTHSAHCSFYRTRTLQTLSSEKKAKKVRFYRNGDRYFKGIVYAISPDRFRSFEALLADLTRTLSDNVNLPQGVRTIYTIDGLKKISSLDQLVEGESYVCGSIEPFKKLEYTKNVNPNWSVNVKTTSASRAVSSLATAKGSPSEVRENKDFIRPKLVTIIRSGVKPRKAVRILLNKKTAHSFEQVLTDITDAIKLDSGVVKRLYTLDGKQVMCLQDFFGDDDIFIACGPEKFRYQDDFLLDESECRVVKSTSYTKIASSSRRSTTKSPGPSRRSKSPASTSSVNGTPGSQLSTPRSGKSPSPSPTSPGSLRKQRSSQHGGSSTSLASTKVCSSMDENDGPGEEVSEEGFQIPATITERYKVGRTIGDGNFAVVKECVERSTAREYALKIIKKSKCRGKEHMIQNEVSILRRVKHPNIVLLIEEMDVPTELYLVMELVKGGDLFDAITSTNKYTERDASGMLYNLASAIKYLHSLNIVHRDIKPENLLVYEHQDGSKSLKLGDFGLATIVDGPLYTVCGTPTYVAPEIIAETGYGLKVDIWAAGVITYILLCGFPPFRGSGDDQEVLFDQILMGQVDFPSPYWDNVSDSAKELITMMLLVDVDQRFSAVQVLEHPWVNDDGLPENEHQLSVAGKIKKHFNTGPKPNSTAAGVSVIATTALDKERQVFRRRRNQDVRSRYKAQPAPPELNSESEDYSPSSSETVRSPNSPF

[15] = biological target: Lymphokine-activated killer T-cell-originated protein kinase (Homo sapiens, UniProt Q96KB5); assay type: functional;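 also: value comes from a kinase panel screen in which TOPK was one of the panel members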
SUMO E1/E2 = SUMO E1/E2 (Homo sapiens, UniProt P63279+Q9UBE0+Q9UBT2); experiment: SAR analysis of SUMOylation using HTRF in an in-Vitro dose response assay. [Related pubchem assays (depositor defined):AID2006, AID2011, AID2018, AID2069, AID2658]; assay type: functional
[16] = Luminescence Cell-Based Dose Retest to Confirm Inhibitors of Cancer Stem Cells. [Related pubchem assays (depositor defined):AID2717, AID2721]; assay type: functional, Homo sapiens; settings: Homo sapiens
Nonstructural protein 1 = Nonstructural protein 1 (Influenza A virus, UniProt Q194T2); assay type: functional, Influenza A virus (A/California/07/2009(H1N1))
Sequence of Nonstructural protein 1 (Q194T2 whole entry): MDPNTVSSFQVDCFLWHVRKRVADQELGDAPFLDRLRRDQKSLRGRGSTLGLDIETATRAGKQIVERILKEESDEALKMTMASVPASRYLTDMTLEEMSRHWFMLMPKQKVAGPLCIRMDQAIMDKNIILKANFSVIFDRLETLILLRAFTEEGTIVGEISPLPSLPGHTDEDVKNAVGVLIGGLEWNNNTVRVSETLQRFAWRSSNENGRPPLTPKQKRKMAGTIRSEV
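For AC50 in this document: cells exposed to compound for roughly 70 hours or longer before luminescence read.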

For `O=C(O)C1Nc2c(O)cc(Cl)c([N+](=O)[O-])c2C2C=CCC12` (configuration not stated), the EC50 [1] was 19.1 µM (inconclusive).
In the case of `O=C1N=C(NS(=O)(=O)Cc2ccccc2)S/C1=C1\C(=O)Nc2ccccc21`, the IC50 (Aminopeptidase N) is reported as 17.4 µM (active) and the IC50 (Genome polyprotein) is reported as 51.6 µM (active).
For `Cc1n[nH]c2ccc(-c3cncc(OCC(N)Cc4cccc(Cl)c4)c3)cc12` (configuration not stated), the Ki [2] was 0.0158 µM (active), the Ki [3] was 0.00398 µM (active) and the Ki [4] was 1.58 µM (active). For the same compound, the Ki [5] was 5.01 µM (active), the Ki (Insulin receptor) was 3.16 µM (active) and the Ki [6] was 0.00631 µM (active). For the same compound, the Ki [7] was 0.0631 µM (active), the Ki [8] was 6.31 µM (active) and the Ki [9] was 0.316 µM (active). The Ki [10] was 0.251 µM (active), the Ki [11] was > 1.58 µM (inactive) and the Ki [12] was 0.0398 µM (active). For the same compound, the pKi [12] was 7.4, the Ki [13] was 0.01 µM (active) and the Ki [14] was 3.16 µM (active). For the same compound, the Ki [15] was 2.51 µM (active).
For `CC(=O)NC1C(=O)N(CCN2CCOCC2)c2ccc(F)cc21` (configuration not stated), the IC50 (SUMO E1/E2) was 13.4 µM (active).
In the case of `Oc1ccc(N=Nc2c(O)ccc3ccccc23)cc1`, the AC50 [16] is reported as 2.38 µM (active) and the IC50 (Nonstructural protein 1) is reported as 17.5 µM (active).
